ChEMBL document CHEMBL1121780, “Synthesis and antiarrhythmic activity of new benzofuran derivatives” (J Med Chem, 1981)
Several values for one entry are separate records, joined by “and”; a condition that tells them apart may be missing. Equal entries are not always repeated. Activity calls are given as the source filed them. The rule behind the calls is not given here.

What was measured:
[1] = Toxicity estimated in mouse as LD50 by intravenous administration; assay type: organism-based; conditions: in vivo
[2] = organism: Canis familiaris; assay: Duration for the sinus rhythm recovery was measured; assay type: functional, Canis lupus familiaris
[3] = test system: Canis familiaris; assay: Activity against ouabain-induced ventricular arrhythmia was measured as percent of sinus rhythm recovery at dose of 8 mg/kg iv; assay type: functional, Canis lupus familiaris, Cardiac ventricle
[4] = test system: Canis familiaris; assay: Activity against ouabain-induced ventricular arrhythmia was measured as percent of sinus rhythm recovery at dose of 5 mg/kg iv; assay type: functional, Canis lupus familiaris, Cardiac ventricle
[5] = test system: Canis familiaris; assay: Activity against harris coronary ligation induced ventricular arrhythmia was measured as percent of final sinus complexes after dose 5 mg/kg, iv; assay type: functional, Canis lupus familiaris, Cardiac ventricle
[6] = organism: Canis familiaris; assay: Duration for the antiarrhythmic activity was measured; assay type: functional, Canis lupus familiaris, Heart
[7] = test system: Canis familiaris; assay: Activity against harris coronary ligation induced ventricular arrhythmia was measured as percent of initial sinus complexes after dose 5 mg/kg, iv; assay type: functional, Canis lupus familiaris, Cardiac ventricle
[8] = test system: Canis familiaris; assay: Activity against harris coronary ligation induced ventricular arrhythmia was measured as percent of initial sinus complexes after dose 10 mg/kg, iv; assay type: functional, Canis lupus familiaris, Cardiac ventricle
[9] = test system: Canis familiaris; assay: Activity against harris coronary ligation induced ventricular arrhythmia was measured as percent of final sinus complexes after dose 10 mg/kg, iv; assay type: functional, Canis lupus familiaris, Cardiac ventricle
[10] = test system: Canis familiaris; assay: Activity against harris coronary ligation induced ventricular arrhythmia was measured as percent of initial sinus complexes after dose 1 mg/kg iv; assay type: functional, Canis lupus familiaris, Cardiac ventricle
[11] = test system: Canis familiaris; assay: Activity against ouabain-induced ventricular arrhythmia was measured as percent of sinus rhythm recovery at dose of 1 mg/kg iv; assay type: functional, Canis lupus familiaris, Cardiac ventricle
[12] = test system: Canis familiaris; assay: Activity against harris coronary ligation induced ventricular arrhythmia was measured as percent of final sinus complexes after dose 1 mg/kg iv; assay type: functional, Canis lupus familiaris, Cardiac ventricle
[13] = test system: Canis familiaris; assay: Activity against ouabain-induced ventricular arrhythmia was measured as percent of sinus rhythm recovery at dose of 6 mg/kg iv; assay type: functional, Canis lupus familiaris, Cardiac ventricle
[14] = test system: Canis familiaris; assay: Activity against harris coronary ligation induced ventricular arrhythmia was measured as percent of initial sinus complexes after dose 12.5 mg/kg, po; assay type: functional, Canis lupus familiaris, Cardiac ventricle
[15] = test system: Canis familiaris; assay: Activity against harris coronary ligation induced ventricular arrhythmia was measured as percent of final sinus complexes after dose 6.25 mg/kg, po; assay type: functional, Canis lupus familiaris, Cardiac ventricle
[16] = test system: Canis familiaris; assay: Activity against harris coronary ligation induced ventricular arrhythmia was measured as percent of initial sinus complexes after dose 2.5 mg/kg, iv; assay type: functional, Canis lupus familiaris, Cardiac ventricle
[17] = test system: Canis familiaris; assay: Activity against harris coronary ligation induced ventricular arrhythmia was measured as percent of final sinus complexes after dose 12.5 mg/kg, po; assay type: functional, Canis lupus familiaris, Cardiac ventricle
[18] = test system: Canis familiaris; assay: Activity against harris coronary ligation induced ventricular arrhythmia was measured as percent of initial sinus complexes after dose 6.25 mg/kg, po; assay type: functional, Canis lupus familiaris, Cardiac ventricle
[19] = test system: Canis familiaris; assay: Activity against harris coronary ligation induced ventricular arrhythmia was measured as percent of initial sinus complexes after dose 25 mg/kg, po; assay type: functional, Canis lupus familiaris, Cardiac ventricle
[20] = test system: Canis familiaris; assay: Activity against ouabain-induced ventricular arrhythmia was measured as percent of sinus rhythm recovery at dose of 2 mg/kg iv; assay type: functional, Canis lupus familiaris, Cardiac ventricle
[21] = test system: Canis familiaris; assay: Activity against harris coronary ligation induced ventricular arrhythmia was measured as percent of final sinus complexes after dose 2.5 mg/kg, iv; assay type: functional, Canis lupus familiaris, Cardiac ventricle
[22] = test system: Canis familiaris; assay: Activity against harris coronary ligation induced ventricular arrhythmia was measured as percent of final sinus complexes after dose 25 mg/kg, po; assay type: functional, Canis lupus familiaris, Cardiac ventricle
[23] = test system: Canis familiaris; assay: Activity against ouabain-induced ventricular arrhythmia was measured as percent of sinus rhythm recovery at dose of 10 mg/kg iv; assay type: functional, Canis lupus familiaris, Cardiac ventricle
[24] = Toxicity was estimated in mouse as LD50 by intravenous administration; LD50 = 200(30%); assay type: organism-based; conditions: in vivo
[25] = test system: Canis familiaris; assay: Activity against harris coronary ligation induced ventricular arrhythmia was measured as percent of initial sinus complexes after dose 2 mg/kg iv; assay type: organism-based, Canis lupus familiaris, Cardiac ventricle; parameters: dose 2 mg/kg, route intravenous; conditions: dog, in vivo
[26] = organism: Canis familiaris; assay: Duration for the antiarrhythmic activity was measured; 10-60; assay type: functional, Canis lupus familiaris, Heart
[27] = test system: Canis familiaris; assay: Activity against harris coronary ligation induced ventricular arrhythmia was measured as percent of final sinus complexes after dose 2 mg/kg, iv; assay type: functional, Canis lupus familiaris, Cardiac ventricle
[28] = test system: Canis familiaris; assay: Activity against harris coronary ligation induced ventricular arrhythmia was measured as percent of initial sinus complexes after dose mg/kg, iv=25; assay type: functional, Canis lupus familiaris, Cardiac ventricle
[29] = test system: Canis familiaris; assay: Activity against harris coronary ligation induced ventricular arrhythmia was measured as percent of initial sinus complexes after dose mg/kg, iv=12.5; assay type: functional, Canis lupus familiaris, Cardiac ventricle
[30] = test system: Canis familiaris; assay: Activity against harris coronary ligation induced ventricular arrhythmia was measured as percent of final sinus complexes after dose mg/kg, iv; assay type: functional, Canis lupus familiaris, Cardiac ventricle
[31] = test system: Canis familiaris; assay: Activity against harris coronary ligation induced ventricular arrhythmia was measured as percent of initial sinus complexes after dose 10 mg/kg iv; assay type: functional, Canis lupus familiaris, Cardiac ventricle
[32] = test system: Canis familiaris; assay: Activity against harris coronary ligation induced ventricular arrhythmia was measured as percent of final sinus complexes after dose 10 mg/kg iv; assay type: functional, Canis lupus familiaris, Cardiac ventricle
[33] = test system: Canis familiaris; assay: Activity against harris coronary ligation induced ventricular arrhythmia was measured as percent of final sinus complexes after dose 5 mg/kg iv; assay type: functional, Canis lupus familiaris, Cardiac ventricle
[34] = test system: Canis familiaris; assay: Activity against harris coronary ligation induced ventricular arrhythmia was measured as percent of initial sinus complexes after dose 25 mg/kg po; assay type: functional, Canis lupus familiaris, Cardiac ventricle
[35] = test system: Canis familiaris; assay: Activity against harris coronary ligation induced ventricular arrhythmia was measured as percent of final sinus complexes after dose 25 mg/kg po; assay type: functional, Canis lupus familiaris, Cardiac ventricle
[36] = test system: Canis familiaris; assay: Activity against harris coronary ligation induced ventricular arrhythmia was measured as percent of initial sinus complexes after dose 5 mg/kg iv; assay type: functional, Canis lupus familiaris, Cardiac ventricle
[37] = test system: Canis familiaris; assay: Activity against ouabain-induced ventricular arrhythmia was measured as percent of sinus rhythm recovery at dose of 2.5 mg/kg iv; assay type: functional, Canis lupus familiaris, Cardiac ventricle
[38] = test system: Canis familiaris; assay: Activity against harris coronary ligation induced ventricular arrhythmia was measured as percent of initial sinus complexes after dose mg/kg, iv=6; Inactive; assay type: functional, organism-based; conditions: Canis lupus familiaris; Cardiac ventricle
[39] = test system: Canis familiaris; assay: Activity against ouabain-induced ventricular arrhythmia was measured as percent of sinus rhythm recovery at the dose of 2 mg/kg iv; assay type: functional, Canis lupus familiaris, Cardiac ventricle

In the case of `CNC(=O)Nc1c(OC)c2c(c(OC)c1OCCN1CCCCC1)OCC2`, the LD50 [1] is reported as 180 mg/kg, the Duration [2] is reported as <30 min and the SRR [3] is reported as 100%.
For `CNC(=O)Nc1c(OCCN2CCN(C)CC2)c(OC)c2occc2c1OC`, the SRR [4] was 100%, the LD50 [1] was 145 mg/kg and the FSC [5] was 50%. The Duration [6] was 30 min and <30 min, the Duration [2] was 120 min and the ISC [7] was 1%. It also gave an ISC [8] of 18% and an FSC [9] of 98%.
In the case of `COc1c(NC(=O)OC(C)C)c(OCCN2CCCCC2)c(OC)c2occc12`, the LD50 [1] is reported as 10 mg/kg, the ISC [10] is reported as 30% and the SRR [11] is reported as 100%. For the same molecule, the Duration [6] was 10 min, the Duration [2] was >100 min and the FSC [12] was 50%.
For `COc1c(NC(C)=O)c(OCCNC(C)C)c(OC)c2occc12`, the LD50 [1] was 88 mg/kg, the Duration [2] was <30 min and the SRR [13] was 33%.
Work on `CNC(=O)Nc1c(OCCN2CCCCC2)c(OC)c2occc2c1OC` [MUROCAINIDE] yielded an ISC [14] of 5%, an LD50 [1] of 50 mg/kg and an FSC [5] of 85%. The Duration [2] was >60 min, the FSC [15] was 14% and the ISC [16] was 3%. The FSC [17] was 90%, the ISC [18] was 1% and the ISC [19] was 13%. For the same molecule, the SRR [20] was 100%, the ISC [7] was 14% and the FSC [21] was 45%. It also gave an FSC [22] of 98%.
With `COc1c(NC(C)=O)c(OCCN2CCN(C)CC2)c(OC)c2occc12` the Duration [2] was <30 min, the SRR [23] was 66% and the LD50 [24] was 200 mg/kg.
Work on `CNC(=O)Nc1c(OCCN(C)C)c(OC)c2occc2c1OC` yielded an ISC [25] of 5%, an LD50 [1] of 100 mg/kg and an SRR [11] of 100%. For the same molecule, the Duration [2] was 30 min, the Duration [26] was 10 min and the FSC [27] was 20%.
With `C=C[C@H]1CN2CC[C@H]1C[C@@H]2[C@@H](O)c1ccnc2ccc(OC)cc12` [QUINIDINE] the LD50 [1] was 89 mg/kg, the ISC [28] was 9% and the Duration [6] was >90 min and 120 min and 240 min. For the same molecule, the Duration [2] was 60 min, the ISC [29] was 9% and the FSC [30] was 25% and 56%. It also gave an SRR [23] of 50%, an ISC [31] of 5% and an FSC [32] of 67%.
For `CC(C)N(CCC(C(N)=O)(c1ccccc1)c1ccccn1)C(C)C` (stereo not given) [DISOPYRAMIDE], the SRR [4] was 100%, the LD50 [1] was 60 mg/kg and the Duration [6] was 60 min and 180 min. It also gave a Duration [2] of 25 min, an FSC [33] of 100% and an ISC [34] of 1%. For the same molecule, the FSC [35] was 100% and the ISC [36] was 19%.
For `COc1c(NC(C)=O)c(OCCN2CCCCC2)c(OC)c2occc12`, the LD50 [1] was 52 mg/kg, the Duration [2] was >50 min and the SRR [37] was 100%. For the same molecule, the ISC [38] was “inactive”.
`CNC(=O)Nc1c(OCCN2CCCCC2)cc2occc2c1OC` gave an LD50 [1] of 100 mg/kg and an SRR [39] of 100%.
